Assay results: patent US12674058B2, “Compound, photosensitive resin composition comprising same, photosensitive resin film, color filter and CMOS image sensor” (SAMSUNG SDI CO., LTD., priority 2021, dated 2026)

Assay: Measurement of solubility in dilution solvent (PGMEA)
Assay type: physicochemical
Conditions: 0.5 g compound in PGMEA, stirred at 25° C. for 1 hour
Method: 0.5 g of each compound Synthesis Examples 1 to 5 and Comparative Synthesis Examples 1 to 5 was added to a dilution solvent (PGMEA), and each corresponding solution was stirred with Mix-Rotar VMR-5 (Luchi Seieido Co., Ltd.) at 25° C. for 1 hour and then, evaluated with respect to solubility, and the results are shown in Table 2.
Solubility Evaluation Criteria
• 10 wt % or more of the compound (solute) was dissolved in the total amount of the diluent: ∘ • Less than 10 wt % of the compound (solute) was dissolved in the total amount of diluent: X

Solubility	Compound
◯	CCN(CCCCCCN(CC)c1ccc2c(-c3ccccc3S(=O)(=O)[O-])c3ccc(N(CCCN4C(=O)c5ccccc5C4=O)c4c(C)cccc4C)cc3[o+]c2c1)c1ccc2c(c1)OC1C=C(N(CCCN3C(=O)c4ccccc4C3=O)c3c(C)cccc3C)C=CC1=C2c1ccccc1S(=O)(=O)O (centres unmarked) [Synthesis Example 1]
◯	CCN(CCCCCCN(CC)c1ccc2c(-c3ccccc3S(=O)(=O)[O-])c3ccc(N(CCCCN4C(=O)c5ccccc5C4=O)c4c(C)cccc4C)cc3[o+]c2c1)c1ccc2c(c1)OC1C=C(N(CCCCN3C(=O)c4ccccc4C3=O)c3c(C)cccc3C)C=CC1=C2c1ccccc1S(=O)(=O)O (centres unmarked) [Synthesis Example 2]
◯	CCN(CCCCCCN(CC)c1ccc2c(-c3ccccc3S(=O)(=O)[O-])c3ccc(N(CCN4C(=O)c5ccccc5C4=O)c4c(C)cccc4C)cc3[o+]c2c1)c1ccc2c(c1)OC1C=C(N(CCN3C(=O)c4ccccc4C3=O)c3c(C)cccc3C)C=CC1=C2c1ccccc1S(=O)(=O)O (centres unmarked) [Synthesis Example 3]
◯	CCN(CCCCCCN(CC)c1ccc2c(-c3ccccc3S(=O)(=O)[O-])c3ccc(N(CCCN4C(=O)c5ccccc5C4=O)c4ccccc4C)cc3[o+]c2c1)c1ccc2c(c1)OC1C=C(N(CCCN3C(=O)c4ccccc4C3=O)c3ccccc3C)C=CC1=C2c1ccccc1S(=O)(=O)O (centres unmarked) [Synthesis Example 4]
◯	Cc1cccc(C)c1N(CCCN1C(=O)c2ccccc2C1=O)C1=CC2Oc3cc(N(C)CCCN(C)c4ccc5c(-c6ccccc6S(=O)(=O)[O-])c6ccc(N(CCCN7C(=O)c8ccccc8C7=O)c7c(C)cccc7C)cc6[o+]c5c4)ccc3C(c3ccccc3S(=O)(=O)O)=C2C=C1 (centres unmarked) [Synthesis Example 5]

Compound	Solubility
Cc1cccc(C)c1N(CCCN1C(=O)c2ccccc2C1=O)C1=CC2Oc3cc(N(C)CCN(C)c4ccc5c(-c6ccccc6S(=O)(=O)[O-])c6ccc(N(CCCN7C(=O)c8ccccc8C7=O)c7c(C)cccc7C)cc6[o+]c5c4)ccc3C(c3ccccc3S(=O)(=O)O)=C2C=C1 (centres unmarked) [Comparative Synthesis Example 3, reference compound]	X (Less than 10 wt % of the compound (solute) was dissolved in the total amount of diluent)
Cc1cccc(C)c1N(CCCN1C(=O)c2ccccc2C1=O)C1=CC2Oc3cc(N(C)CCCCCCCCCCCN(C)c4ccc5c(-c6ccccc6S(=O)(=O)[O-])c6ccc(N(CCCN7C(=O)c8ccccc8C7=O)c7c(C)cccc7C)cc6[o+]c5c4)ccc3C(c3ccccc3S(=O)(=O)O)=C2C=C1 (centres unmarked) [Comparative Synthesis Example 4, reference compound]	X (Less than 10 wt % of the compound (solute) was dissolved in the total amount of diluent)
CCN(CCCCCCN(CC)c1ccc2c(-c3ccccc3S(=O)(=O)[O-])c3ccc(N(CN4C(=O)c5ccccc5C4=O)c4c(C)cccc4C)cc3[o+]c2c1)c1ccc2c(c1)OC1C=C(N(CN3C(=O)c4ccccc4C3=O)c3c(C)cccc3C)C=CC1=C2c1ccccc1S(=O)(=O)O (centres unmarked) [Comparative Synthesis Example 5, reference compound]	X (Less than 10 wt % of the compound (solute) was dissolved in the total amount of diluent)
